Experimental data taken from the supplement of paper PMC12076712.

How the values were obtained:
Assay in all cases: pIC50, kinobeads binding competition
BRSK2 = target: T1, BRSK2 (UniProt Q8IWQ3)
T1 sequence (whole entry): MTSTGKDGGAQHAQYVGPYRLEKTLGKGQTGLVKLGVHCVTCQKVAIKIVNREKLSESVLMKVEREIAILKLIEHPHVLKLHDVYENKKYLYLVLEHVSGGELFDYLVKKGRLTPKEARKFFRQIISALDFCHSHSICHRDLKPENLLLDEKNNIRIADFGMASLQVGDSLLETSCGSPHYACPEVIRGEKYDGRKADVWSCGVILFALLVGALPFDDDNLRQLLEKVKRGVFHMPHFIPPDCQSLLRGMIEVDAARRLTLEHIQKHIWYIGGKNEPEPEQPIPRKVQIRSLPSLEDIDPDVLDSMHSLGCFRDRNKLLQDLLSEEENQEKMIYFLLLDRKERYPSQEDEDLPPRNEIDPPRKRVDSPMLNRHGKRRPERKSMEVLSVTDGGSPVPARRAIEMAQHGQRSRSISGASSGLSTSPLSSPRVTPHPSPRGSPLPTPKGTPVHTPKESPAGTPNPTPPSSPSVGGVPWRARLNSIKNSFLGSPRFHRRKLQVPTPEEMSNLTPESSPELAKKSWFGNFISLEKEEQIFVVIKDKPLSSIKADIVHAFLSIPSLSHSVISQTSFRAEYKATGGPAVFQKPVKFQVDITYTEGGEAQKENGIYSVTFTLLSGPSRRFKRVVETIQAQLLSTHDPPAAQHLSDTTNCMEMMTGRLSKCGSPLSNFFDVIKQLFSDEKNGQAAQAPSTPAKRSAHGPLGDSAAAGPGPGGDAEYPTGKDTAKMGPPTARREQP
How it was run: (§1)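 Jurkat cells were exposed alive to nine compound concentrations (top 30 μM, 1:4 steps) or vehicle for 60 min at 37 °C and then lysed. In a second format, nine concentrations (top 30 μM, 1:5 steps) were incubated for 60 min at 4 °C with Jurkat lysate or with a 1:1:1:1 lysate mix of HEK293, K-562, HepG2 and placenta. Proteins captured on Kinobeads were digested and quantified by TMT10 LC-MS/MS. pIC50 values were derived from logistic dose-response fits (R drc package) of fold changes relative to vehicle, in biological duplicates.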

CDK6 = CDK6 (UniProt Q00534)
Sequence of CDK6 (Q00534 whole entry): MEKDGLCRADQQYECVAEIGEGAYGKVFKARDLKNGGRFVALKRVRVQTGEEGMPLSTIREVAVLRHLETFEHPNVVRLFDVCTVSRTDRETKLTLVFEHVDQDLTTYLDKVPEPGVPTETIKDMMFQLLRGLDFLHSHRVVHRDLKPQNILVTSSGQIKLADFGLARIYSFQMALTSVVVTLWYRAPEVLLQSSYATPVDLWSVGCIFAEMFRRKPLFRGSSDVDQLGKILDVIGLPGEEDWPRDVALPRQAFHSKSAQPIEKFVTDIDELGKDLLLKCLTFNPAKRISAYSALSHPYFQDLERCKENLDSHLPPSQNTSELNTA
How it was run: as §1

CDKL5 = target: T2, CDKL5 (UniProt O76039)
T2 sequence (whole entry): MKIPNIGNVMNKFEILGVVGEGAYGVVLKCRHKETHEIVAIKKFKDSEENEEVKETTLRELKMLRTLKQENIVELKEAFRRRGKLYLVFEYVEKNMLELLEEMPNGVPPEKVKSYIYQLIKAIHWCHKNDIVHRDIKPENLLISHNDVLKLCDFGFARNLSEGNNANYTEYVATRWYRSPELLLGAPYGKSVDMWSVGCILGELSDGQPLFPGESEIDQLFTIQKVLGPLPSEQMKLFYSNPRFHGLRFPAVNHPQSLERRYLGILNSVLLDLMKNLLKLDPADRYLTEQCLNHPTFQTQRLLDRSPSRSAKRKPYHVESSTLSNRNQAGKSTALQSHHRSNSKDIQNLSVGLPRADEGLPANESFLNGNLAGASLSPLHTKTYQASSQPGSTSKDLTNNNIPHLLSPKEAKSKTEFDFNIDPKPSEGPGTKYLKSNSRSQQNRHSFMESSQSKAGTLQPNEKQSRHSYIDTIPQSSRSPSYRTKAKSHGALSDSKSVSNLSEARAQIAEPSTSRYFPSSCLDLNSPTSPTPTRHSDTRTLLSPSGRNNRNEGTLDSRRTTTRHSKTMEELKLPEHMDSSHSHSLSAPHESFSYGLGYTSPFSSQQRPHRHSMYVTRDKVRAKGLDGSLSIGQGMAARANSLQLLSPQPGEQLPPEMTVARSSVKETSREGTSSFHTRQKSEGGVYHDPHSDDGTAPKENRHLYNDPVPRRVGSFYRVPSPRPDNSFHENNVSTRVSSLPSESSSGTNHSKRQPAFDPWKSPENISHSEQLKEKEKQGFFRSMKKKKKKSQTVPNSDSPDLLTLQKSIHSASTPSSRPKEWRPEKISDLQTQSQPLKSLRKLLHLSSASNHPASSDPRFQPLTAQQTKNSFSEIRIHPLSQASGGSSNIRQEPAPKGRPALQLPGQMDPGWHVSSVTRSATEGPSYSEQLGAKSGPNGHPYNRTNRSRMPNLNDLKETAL
How it was run: as §1

Hck = Hck (UniProt P08631); conditions: cell material: Lysate mix
Sequence of Hck (P08631 whole entry, looked up): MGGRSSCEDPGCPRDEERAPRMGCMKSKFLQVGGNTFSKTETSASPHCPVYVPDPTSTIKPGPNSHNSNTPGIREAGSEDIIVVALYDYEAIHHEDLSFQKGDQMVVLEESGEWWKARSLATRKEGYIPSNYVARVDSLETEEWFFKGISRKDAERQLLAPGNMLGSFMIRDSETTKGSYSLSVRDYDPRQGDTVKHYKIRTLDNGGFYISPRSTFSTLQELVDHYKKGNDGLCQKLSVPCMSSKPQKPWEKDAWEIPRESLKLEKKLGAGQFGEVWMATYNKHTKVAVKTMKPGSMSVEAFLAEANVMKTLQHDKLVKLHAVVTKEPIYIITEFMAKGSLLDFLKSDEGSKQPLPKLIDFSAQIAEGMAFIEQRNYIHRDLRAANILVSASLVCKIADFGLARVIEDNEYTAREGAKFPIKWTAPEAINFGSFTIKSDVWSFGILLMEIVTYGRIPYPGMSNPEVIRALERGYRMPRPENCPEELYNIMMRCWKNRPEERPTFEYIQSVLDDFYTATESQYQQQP
How it was run: as §1

MAPK14 = MAPK14 (UniProt Q16539)
Sequence of MAPK14 (Q16539 whole entry): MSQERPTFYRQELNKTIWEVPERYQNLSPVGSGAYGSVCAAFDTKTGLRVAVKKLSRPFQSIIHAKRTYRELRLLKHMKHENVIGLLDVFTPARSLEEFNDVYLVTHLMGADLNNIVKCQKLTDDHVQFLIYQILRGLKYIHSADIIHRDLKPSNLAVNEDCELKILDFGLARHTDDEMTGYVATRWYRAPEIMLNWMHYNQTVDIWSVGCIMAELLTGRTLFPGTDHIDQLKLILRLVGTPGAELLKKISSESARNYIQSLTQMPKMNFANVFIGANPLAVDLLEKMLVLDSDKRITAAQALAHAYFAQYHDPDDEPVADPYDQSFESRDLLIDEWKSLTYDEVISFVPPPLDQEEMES
How it was run: as §1

ROCK2 = ROCK2 (UniProt O75116)
Sequence of ROCK2 (O75116 whole entry, looked up): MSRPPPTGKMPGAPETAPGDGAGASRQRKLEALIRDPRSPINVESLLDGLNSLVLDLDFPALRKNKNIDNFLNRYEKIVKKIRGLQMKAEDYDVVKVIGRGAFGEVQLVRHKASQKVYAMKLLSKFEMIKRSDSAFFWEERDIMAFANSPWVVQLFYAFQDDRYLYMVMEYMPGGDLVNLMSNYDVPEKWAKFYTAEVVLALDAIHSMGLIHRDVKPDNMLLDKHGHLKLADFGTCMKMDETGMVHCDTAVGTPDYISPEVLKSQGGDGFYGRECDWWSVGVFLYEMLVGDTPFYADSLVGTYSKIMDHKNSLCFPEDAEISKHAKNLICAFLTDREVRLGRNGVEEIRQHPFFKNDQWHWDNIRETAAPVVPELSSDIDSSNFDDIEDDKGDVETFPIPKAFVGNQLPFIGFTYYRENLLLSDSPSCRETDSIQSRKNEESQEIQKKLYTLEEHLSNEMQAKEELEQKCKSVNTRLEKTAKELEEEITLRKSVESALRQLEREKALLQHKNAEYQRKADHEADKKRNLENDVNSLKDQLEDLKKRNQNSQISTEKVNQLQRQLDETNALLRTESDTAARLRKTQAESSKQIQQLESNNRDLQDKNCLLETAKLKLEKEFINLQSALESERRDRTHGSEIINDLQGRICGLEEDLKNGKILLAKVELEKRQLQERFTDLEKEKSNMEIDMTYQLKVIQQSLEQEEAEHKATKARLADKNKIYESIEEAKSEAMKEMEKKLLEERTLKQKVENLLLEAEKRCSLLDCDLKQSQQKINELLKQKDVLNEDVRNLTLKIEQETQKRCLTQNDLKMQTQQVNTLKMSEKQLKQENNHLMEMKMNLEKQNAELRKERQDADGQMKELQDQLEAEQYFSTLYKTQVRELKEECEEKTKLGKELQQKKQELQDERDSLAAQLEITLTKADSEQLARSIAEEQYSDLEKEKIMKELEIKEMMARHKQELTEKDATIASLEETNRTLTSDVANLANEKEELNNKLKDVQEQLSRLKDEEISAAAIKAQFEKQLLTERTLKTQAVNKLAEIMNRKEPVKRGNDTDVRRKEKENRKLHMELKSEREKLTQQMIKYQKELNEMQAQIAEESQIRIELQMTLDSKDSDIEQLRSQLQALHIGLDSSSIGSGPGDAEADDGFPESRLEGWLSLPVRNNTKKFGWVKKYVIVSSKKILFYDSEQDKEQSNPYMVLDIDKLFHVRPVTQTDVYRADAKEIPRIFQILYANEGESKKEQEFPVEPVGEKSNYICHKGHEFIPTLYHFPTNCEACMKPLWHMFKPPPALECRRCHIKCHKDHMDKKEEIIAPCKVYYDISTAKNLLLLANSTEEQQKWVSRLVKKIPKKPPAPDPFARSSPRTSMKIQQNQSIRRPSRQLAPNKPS
How it was run: as §1

UniProt P17252 = target: UniProt P17252
How it was run: as §1

UniProt Q9BQI3 = target: UniProt Q9BQI3
Sequence of UniProt Q9BQI3 (Q9BQI3 whole entry): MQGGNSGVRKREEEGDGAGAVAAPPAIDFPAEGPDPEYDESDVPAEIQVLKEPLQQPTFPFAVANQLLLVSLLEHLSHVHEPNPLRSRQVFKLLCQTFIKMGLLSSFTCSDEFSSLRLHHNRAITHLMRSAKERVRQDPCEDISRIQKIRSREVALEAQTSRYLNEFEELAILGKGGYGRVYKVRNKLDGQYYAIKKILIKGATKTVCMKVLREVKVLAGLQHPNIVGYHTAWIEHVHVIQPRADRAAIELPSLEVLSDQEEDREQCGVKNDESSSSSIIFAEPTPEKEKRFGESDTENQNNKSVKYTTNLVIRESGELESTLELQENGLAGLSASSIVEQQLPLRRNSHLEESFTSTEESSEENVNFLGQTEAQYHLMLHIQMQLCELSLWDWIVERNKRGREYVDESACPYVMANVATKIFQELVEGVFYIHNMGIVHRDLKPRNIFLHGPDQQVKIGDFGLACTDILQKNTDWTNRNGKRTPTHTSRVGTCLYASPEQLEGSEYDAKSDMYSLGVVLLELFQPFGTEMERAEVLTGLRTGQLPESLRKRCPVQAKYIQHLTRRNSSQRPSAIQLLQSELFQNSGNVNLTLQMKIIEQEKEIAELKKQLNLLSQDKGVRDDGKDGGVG
How it was run: as §1

UniProt Q9Y2U5 = target: T3, UniProt Q9Y2U5
T3 sequence (whole entry): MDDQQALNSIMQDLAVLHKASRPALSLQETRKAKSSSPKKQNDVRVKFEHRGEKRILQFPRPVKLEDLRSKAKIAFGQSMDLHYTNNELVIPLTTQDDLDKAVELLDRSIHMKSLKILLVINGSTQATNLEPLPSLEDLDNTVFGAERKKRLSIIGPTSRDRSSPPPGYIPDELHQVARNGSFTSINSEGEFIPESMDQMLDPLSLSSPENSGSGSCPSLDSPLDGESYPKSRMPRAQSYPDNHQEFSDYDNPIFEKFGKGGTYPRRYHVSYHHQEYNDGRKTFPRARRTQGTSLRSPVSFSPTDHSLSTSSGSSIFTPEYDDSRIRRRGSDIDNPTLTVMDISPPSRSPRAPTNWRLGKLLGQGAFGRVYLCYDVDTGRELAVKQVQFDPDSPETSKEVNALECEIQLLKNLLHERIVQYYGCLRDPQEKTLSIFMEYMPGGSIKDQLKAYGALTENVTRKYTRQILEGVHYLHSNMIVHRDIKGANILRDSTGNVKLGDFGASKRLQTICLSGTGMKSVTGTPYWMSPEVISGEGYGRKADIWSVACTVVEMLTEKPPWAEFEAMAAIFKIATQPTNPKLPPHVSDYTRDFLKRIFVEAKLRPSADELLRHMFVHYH
How it was run: as §1

SMILES | pIC50 (BRSK2; cell material: Lysate mix) | pIC50 (CDK6; cell material: Lysate mix) | pIC50 (CDKL5; cell material: Lysate mix) | pIC50 (Hck) | pIC50 (MAPK14; cell material: Lysate mix) | pIC50 (ROCK2; cell material: Lysate mix) | pIC50 (UniProt P17252; cell material: Lysate mix) | pIC50 (UniProt Q9BQI3; cell material: Lysate mix) | pIC50 (UniProt Q9Y2U5; cell material: Lysate mix) | pIC50 (BRSK2; cell material: Jurkat cells) | pIC50 (BRSK2; cell material: Jurkat lysate) | pIC50 (CDK6; cell material: Jurkat cells) | pIC50 (CDK6; cell material: Jurkat lysate) | pIC50 (CDKL5; cell material: Jurkat cells) | pIC50 (CDKL5; cell material: Jurkat lysate) | pIC50 (MAPK14; cell material: Jurkat cells) | pIC50 (MAPK14; cell material: Jurkat lysate) | pIC50 (ROCK2; cell material: Jurkat cells) | pIC50 (UniProt P17252; cell material: Jurkat cells) | pIC50 (UniProt P17252; cell material: Jurkat lysate) | pIC50 (UniProt Q9BQI3; cell material: Jurkat cells) | pIC50 (UniProt Q9BQI3; cell material: Jurkat lysate) | pIC50 (UniProt Q9Y2U5; cell material: Jurkat cells) | pIC50 (UniProt Q9Y2U5; cell material: Jurkat lysate)
CCNC(=O)c1cc(Nc2cc(C)[nH]n2)nc(N2CCN(Cc3ccc(S(=O)(=O)F)cc3)CC2)n1 | < 4.52 | 5.22 | 5.11 | 5.62 | < 4.52 | < 4.52 | < 4.52 | < 4.52 | 4.67 | – | – | – | – | – | – | – | – | – | – | – | – | – | – | –
CCNC(=O)c1cc(Nc2cc(C3CC3)[nH]n2)nc(N2CCN(Cc3ccc(S(=O)(=O)F)cc3)CC2)n1 | < 4.52 | 5.52 | 6.16 | 5.8 | < 4.52 | < 4.52 | 5.11 | 5.06 | 5.29 | – | – | – | – | – | – | – | – | – | – | – | – | – | – | –
Cc1cc(Nc2cc(C(=O)NCCNC(=O)OC3CC/C=C/CCC3)nc(N3CCN(Cc4ccc(S(=O)(=O)F)cc4)CC3)n2)n[nH]1 (stereo not given) | < 4.52 | < 4.52 | < 4.52 | < 4.52 | < 4.52 | < 4.52 | < 4.52 | < 4.52 | < 4.52 | – | – | – | – | – | – | – | – | – | – | – | – | – | – | –
C#CCNC(=O)c1cc(Nc2cc(C3CC3)[nH]n2)nc(N2CCN(Cc3ccc(S(=O)(=O)F)cc3)CC2)n1 | 4.84 | 5.58 | 6.41 | 5.86 | < 4.52 | < 4.52 | < 4.52 | – | 5.47 | 6.54 | < 4.52 | 6.84 | 5.43 | 6.89 | 5.95 | < 4.52 | < 4.52 | 4.76 | 5.48 | < 4.52 | 5.34 | < 4.52 | 5.84 | –
C#CCNC(=O)c1cc(Nc2cc(C)[nH]n2)nc(N2CCN(Cc3ccc(S(=O)(=O)F)cc3)CC2)n1 | < 4.52 | 5.06 | 5.23 | 5.4 | < 4.52 | < 4.52 | < 4.52 | < 4.52 | 4.82 | – | – | – | – | – | – | – | – | – | – | – | – | – | – | –
O=C(NCCNC(=O)c1cc(Nc2cc(C3CC3)[nH]n2)nc(N2CCN(Cc3ccc(S(=O)(=O)F)cc3)CC2)n1)OC1CC/C=C/CCC1 (stereo not given) | < 4.52 | < 4.52 | 5.12 | < 4.52 | < 4.52 | < 4.52 | < 4.52 | < 4.52 | < 4.52 | 5.93 | < 4.52 | 6.38 | < 4.52 | – | 4.89 | < 4.52 | < 4.52 | < 4.52 | – | < 4.52 | < 4.52 | < 4.52 | 5.38 | < 4.52
